Data taken from the supplement of paper PMC10307832.

Tests used:
Assay in all cases: relative viability (nuclei count vs DMSO), 5 days (fraction); higher = more cells survive
[1] = compound: NC(=O)c1ccc(N(C(N)=O)c2c(F)cccc2F)nc1-c1ccc(F)cc1F [VX-702] + CC(C)C[C@H](NC(=O)[C@H](Cc1ccccc1)NC(=O)c1cnccn1)B(O)O [Bortezomib] (partner 0.002 µM)
Outline: (§1)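 Relative viability equals treated-well nuclei counts divided by vehicle-well nuclei counts. Counts came from 4× images of lung cancer cell lines grown in 1536-well plates for 5 days after pin-tool dosing on the day after seeding. Dosing used one drug alone or a fixed anchor-drug dose plus five library-drug doses (not always all listed) in √10 steps, and values are medians of duplicate plates.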

[2] = compound: CC(C)(C)c1nc(-c2cccc(NS(=O)(=O)c3c(F)cccc3F)c2F)c(-c2ccnc(N)n2)s1 [Dabrafenib] + Cc1cc(Nc2cc(N3CCN(C)CC3)nc(Sc3ccc(NC(=O)C4CC4)cc3)n2)n[nH]1 [Tozasertib] (partner 0.1 µM)
Outline: as §1

[3] = compound: NC(=O)c1ccc(N(C(N)=O)c2c(F)cccc2F)nc1-c1ccc(F)cc1F [VX-702] + COc1cc2c(Oc3ccc(NC(=O)C4(C(=O)Nc5ccc(F)cc5)CC4)cc3F)ccnc2cc1OCCCN1CCOCC1 [Foretinib] (partner 0.25 µM)
Outline: as §1

[4] = compound: NC(=O)c1ccc(N(C(N)=O)c2c(F)cccc2F)nc1-c1ccc(F)cc1F [VX-702] + C[C@]1(O)C[C@@H](c2nc(-c3ccc4ccc(-c5ccccc5)nc4c3)c3c(N)nccn32)C1 [Linsitinib] (partner 1 µM)
Outline: as §1

Cell Line	relative viability ([1]; first compound 0.02 µM)	relative viability ([1]; first compound 0.2 µM)	relative viability ([1]; first compound 0.6325 µM)	relative viability ([1]; first compound 2 µM)	relative viability ([2]; first compound 0.003 µM)	relative viability ([2]; first compound 0.009487 µM)	relative viability ([2]; first compound 0.03 µM)	relative viability ([2]; first compound 0.09487 µM)	relative viability ([2]; first compound 0.3 µM)	relative viability ([3]; first compound 0.02 µM)	relative viability ([3]; first compound 0.2 µM)	relative viability ([3]; first compound 0.6325 µM)	relative viability ([3]; first compound 2 µM)	relative viability ([4]; first compound 0.02 µM)	relative viability ([4]; first compound 0.2 µM)	relative viability ([4]; first compound 0.6325 µM)	relative viability ([4]; first compound 2 µM)
NCI-H1975	0.367	0.281	0.353	0.391	0.778	0.769	0.714	0.659	0.689	0.969	0.915	0.943	1.09	1.01	0.998	0.887	1.17
NCI-H1993	0.841	1.01	0.992	1.01	0.484	0.586	0.504	0.571	0.606	0.717	0.773	0.754	0.693	0.712	0.718	0.745	0.8
NCI-H2009	1.29	1.15	1.22	1.3	0.703	0.759	0.672	0.649	0.62	1.28	1.28	1.28	1.38	1.33	1.23	1.21	1.34
NCI-H2023	0.862	0.946	1.06	0.947	0.376	0.382	0.35	0.321	0.356	0.761	0.722	0.724	1	0.568	0.561	0.629	0.612
NCI-H2085	1.08	1.06	1.03	1	0.76	0.908	0.734	0.75	0.706	1.05	0.898	0.967	0.968	0.911	0.882	0.903	1.02
NCI-H2087	0.824	0.889	0.818	0.914		0.306	0.254	0.302	0.264	1.18	0.915	1.12	1.23	1.07	0.982	0.879	1.01
NCI-H2126	1.11	1.06	1.11	1.25	0.809	0.865	0.858	0.862	0.882	1.15	1.1	1.21	1.18	0.726	0.697	0.67	0.634
NCI-H2228	1.02	0.917	1.31	1.04		0.246	0.248	0.236	0.244	0.889	0.851	1.07	0.887	0.724	0.671	0.685	0.761
NCI-H2347	0.995	0.83	1.02	1.13		0.548	0.344	0.621	0.496	1.49	0.828	1.16	1.03	0.968	0.977	0.896	0.986
NCI-H2405	1.04	0.604	0.702	0.977		0.799		0.647	0.726	1.08	0.98	0.965	1.02	0.914	0.981	0.896	0.982
NCI-H3122	0.991	0.958	0.987	0.931	0.427	0.449	0.391	0.374	0.367	0.964	0.946	1.01	0.923	1.02	1.02	0.985	1.01
PC-3 [JPC-3]	0.836	0.796	0.966	0.809	0.934	0.957	0.941	0.827	0.929	1.11	1.02	1.1	1.05	0.966	1.01	1.03	1.05
PC-14	0.888	0.852	0.854	0.991		0.631	0.647	0.527	0.624	1.02	0.956	0.986	1.08	0.965	0.943	1.04	1.04
RERF-LC-KJ	1.18	1.06	1.2	1.28	0.484	0.593	0.581	0.456	0.591	0.995	0.923	0.984	0.934	0.956	0.883	0.876	0.966
SK-LU-1	1.15		1.19	1.8		0.365	0.255	0.311	0.332	0.917	0.786	0.777	1.01	1.06	1.03	1.08	1.22
SW 1573	1.02	0.902	0.871	1	0.284	0.233	0.191	0.19	0.241	1.05	0.876	0.784	0.679	0.918	0.737	0.647	0.659
UMC-11	0.717	0.666	0.689	0.827	0.189	0.202	0.19	0.197	0.231	0.988	0.843	0.893	1.21	0.949	0.985	0.851	1.08
